Experimental data reported in PubChem BioAssay AID1259411 (Chemical Carcinogenesis Research Information System (CCRIS), 2018).
Activity calls are given as the source filed them. How the calls were made is not given here.

System: rodent carcinogenicity bioassays, tumor incidence
Assay: CCRIS carcinogenicity studies
Procedure, shortened: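 NCI-built, expert-reviewed records of carcinogenicity and related test outcomes (mutagenicity, tumor promotion/inhibition) compiled from published and report sources, historical span 1985-2011, not updated.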

Cc1c2ccccc2c(C)c2c1ccc1ccccc12
carcinogen call (Species: FISH, Strain/Sex: KING COBRA GUPPY/ MALE, FEMALE, Route: IMMERSION, Dose: 0, 0.86, 3.18, 0.90 PPB (LOW DOSE) GIVEN AS SEPARATE DOSES OVER A 4 WK PERIOD, EACH DOSE GIVEN 6 HR/D FOR 1 DAY, 0, 16.3, Dose: 0, 0.86, 3.18, 0.90 PPB (LOW DOSE) GIVEN AS SEPARATE DOSES OVER A 4 WK PERIOD, EACH DOSE GIVEN 6 HR/D FOR 1 DAY, 0, 16.3, Tumor Site: Type of Lesion: LIVER: HEPATOCELLULAR ADENOMA, HEPATOCELLULAR CARCINOMA): active; positive
carcinogen call (Species: FISH, Strain/Sex: SHEEPSHEAD MINNOW/MALE, FEMALE, Route: IMMERSION, Dose: 0, 1, 30, 1200 PPB APPROXIMATE CONCENTRATIONS ADMINISTERED 1/WK FOR 6 OR 24 HR FOR 1 OR 2 WK (STUDY DURATION: 39 WK), Dose: 0, 1, 30, Tumor Site: Type of Lesion: LIVER: ALTERED FOCI, HEPATOCELLULAR ADENOMA OR HEPATOCELLULAR CARCINOMA): active; positive
carcinogen call (Species: HAMSTER, Strain/Sex: SYRIAN/FEMALE, Route: TONGUE, Dose: 0, 0.10 ML OF A 0.5% ACETONE SOLUTION TO BORDER OF MIDDLE THIRD PORTION OF TONGUE 3/WK FOR 4 WK (STUDY DURATION: 11 WK)): inactive; negative
carcinogen call (Species: HAMSTER, Strain/Sex: SYRIAN/FEMALE, Route: TONGUE, Dose: 0, 0.10 ML OF A 0.5% ACETONE SOLUTION TO BORDER OF MIDDLE THIRD PORTION OF TONGUE 3/WK FOR 6 WK (STUDY DURATION: 11 WK), Tumor Site: Type of Lesion: TONGUE: CARCINOMA): active; positive
carcinogen call (Species: HAMSTER, Strain/Sex: SYRIAN/FEMALE, Route: TONGUE, Dose: 0, 0.10 ML OF A 0.5% ACETONE SOLUTION TO BORDER OF MIDDLE THIRD PORTION OF TONGUE 3/WK FOR 8 WK (STUDY DURATION: 11 WK), Tumor Site: Type of Lesion: TONGUE: CARCINOMA): active; positive
carcinogen call (Species: HAMSTER, Strain/Sex: SYRIAN/MALE,FEMALE, Route: DERMAL, Dose: 80 µL OF 1% SOLN IN MINERAL OIL ONCE OR 1/WK FOR 3 WK, Tumor Site: Type of Lesion: INTEGUMENTARY SYSTEM (SKIN): PAPILLOMA, SQUAMOUS CELL CARCINOMA, ANGIOMA, MELANOTIC AND ADNEXAL TUMOR): active; positive
carcinogen call (Species: HAMSTER, Strain/Sex: SYRIAN/MALE,FEMALE, Route: DERMAL, Dose: 80 µL OF 1% SOLN IN MINERAL OIL ONCE, Tumor Site: Type of Lesion: INTEGUMENTARY SYSTEM (SKIN): AMELANOTIC DERMAL MELANOCYTOMA): active; positive
carcinogen call (Species: HAMSTER, Strain/Sex: SYRIAN/MALE,FEMALE, Route: SUBCUTANEOUS, Dose: 0.005-20 MG IN 1 ML OLIVE OIL ONCE, Tumor Site: Type of Lesion: INJECTION SITE: SARCOMA): active; positive
carcinogen call (Species: MOUSE, Strain/Sex: ALBINO/MALE, Route: DERMAL, Dose: 0.05% IN OLIVE OIL OR ACETONE, 0.2 ML 2/WK, Tumor Site: Type of Lesion: INTEGUMENTARY SYSTEM (SKIN)): active; positive
carcinogen call (Species: MOUSE, Strain/Sex: B6C3F1/MALE, Route: INTRAPERITONEAL, Dose: 0, 0.00075, 0.0015, 0.003 UMOL/G IN 10 µL/G TRIOCTANOIN ONCE ON 12 D OF AGE (STUDY DURATION: 10 MO), Dose: 0, 0.00075, 0.0015, 0.003 UMOL/G IN 10 µL/G TRIOCTANOIN ONCE ON 12 D OF AGE (STUDY DURATION: 10 MO), Tumor Site: Type of Lesion: LIVER: HEPATOMA): active; positive
carcinogen call (Species: MOUSE, Strain/Sex: B6C3F1/MALE, Route: INTRAPERITONEAL, Dose: 0, 0.003, 0.01, 0.03 UMOL/G IN 10 µL/G TRIOCTANOIN ONCE ON 12 D OF AGE (STUDY DURATION: 8.5 MO), Dose: 0, 0.003, 0.01, 0.03 UMOL/G IN 10 µL/G TRIOCTANOIN ONCE ON 12 D OF AGE (STUDY DURATION: 8.5 MO), Tumor Site: Type of Lesion: LIVER: HEPATOMA): active; positive
carcinogen call (Species: MOUSE, Strain/Sex: B6C3F1/MALE, Route: INTRAPERITONEAL, Dose: 0, 0.01 UMOL/G IN 10 µL/G TRIOCTANOIN ON D 12 OF AGE (STUDY DURATION: 10 MO), Tumor Site: Type of Lesion: LIVER: HEPATOMA): active; positive
carcinogen call (Species: MOUSE, Strain/Sex: BALB/FEMALE, Route: GAVAGE, Dose: 0.5-2 MG IN ALMOND OIL 1/2 WK OR 2/WK FOR 8-10 WK, Tumor Site: Type of Lesion: OVARIES: GRANULOSA CELL TUMOR): active; positive
carcinogen call (Species: MOUSE, Strain/Sex: BALB, Route: SUBCUTANEOUS, Dose: 30 UG IN 0.02 ML OF 1% AQ GEL SUSPENDED ONCE, Tumor Site: Type of Lesion: LUNG: ADENOMA, ADENOCARCINOMA): active; positive
carcinogen call (Species: MOUSE, Strain/Sex: C57BL/FEMALE, Route: DERMAL, Dose: 2.5 MG OF 0.5% SOLN IN 0.5 ML OLIVE OIL 1/2 WK FOR LIFE, Tumor Site: Type of Lesion: INTEGUMENTARY SYSTEM (SKIN)): active; positive
carcinogen call (Species: MOUSE, Strain/Sex: C57BL, Route: DERMAL, Dose: 0.5 ML OF 0.5% SOLN IN OLIVE OIL 1/2 WK FOR 6 WK, Tumor Site: Type of Lesion: OVARIES): active; positive
carcinogen call (Species: MOUSE, Strain/Sex: C57BL, Route: DERMAL, Dose: 0.5 ML OF 0.5% SOLN IN OLIVE OIL 1/2 WK FOR 6 WK, Tumor Site: Type of Lesion: OVARIES, MAMMARY GLAND): active; positive
carcinogen call (Species: MOUSE, Strain/Sex: CBA, Route: SUBCUTANEOUS, Dose: 30 UG IN 15 µL OF 1% AQ GEL ONCE, Tumor Site: Type of Lesion: LUNG): active; positive
carcinogen call (Species: MOUSE, Strain/Sex: CD-1/FEMALE, Route: SUBCUTANEOUS, Dose: 20 MG/KG IN 1% GEL SOLN WITHIN 24 HR OF BIRTH, Tumor Site: Type of Lesion: LUNG: ADENOMA, ADENOCARCINOMA): active; positive
carcinogen call (Species: MOUSE, Strain/Sex: CD-1/MALE, Route: SUBCUTANEOUS, Dose: 20 MG/KG IN 1% GEL SOLN WITHIN 24 HR OF BIRTH, Tumor Site: Type of Lesion: LUNG: ADENOMA, ADENOCARCINOMA, LIVER: ADENOMA): active; positive
carcinogen call (Species: MOUSE, Strain/Sex: ICR, Route: SUBCUTANEOUS, Dose: 0.001, 0.01, 0.1 MG IN 0.05 ML TRICAPRYLIN, Dose: 0.001, 0.01, 0.1 MG IN 0.05 ML TRICAPRYLIN, Tumor Site: Type of Lesion: INJECTION SITE: FIBROSARCOMA, SQUAMOUS CELL CARCINOMA, SARCOMA): active; positive
carcinogen call (Species: MOUSE, Strain/Sex: MALE,FEMALE, Route: DERMAL, Dose: 0.1 ML OF 0.1% SOLN IN ACETONE 1/WK FOR 9 WK, Tumor Site: Type of Lesion: INTEGUMENTARY SYSTEM (SKIN): PAPILLOMA, MALIGNANT PAPILLOMA): active; positive
carcinogen call (Species: MOUSE, Strain/Sex: SENCAR/FEMALE, Route: GAVAGE, Dose: 0, 20, 60, 200 UG IN 0.1 ML CORN OIL 1/D 5 D/WK FOR 6 WK (STUDY DURATION: 53 WK), Dose: 0, 20, 60, 200 UG IN 0.1 ML CORN OIL 1/D 5 D/WK FOR 6 WK (STUDY DURATION: 53 WK), Tumor Site: Type of Lesion: LYMPHATIC SYSTEM: LYMPHOMA, MAMMARY GLAND: CARCINOMA): active; positive
carcinogen call (Species: MOUSE, Strain/Sex: SWISS/FEMALE, Route: DERMAL, Dose: 0, 1, 4, 8 NMOL IN 100 µL ACETONE 2/WK FOR 40 WK (STUDY DURATION: 48 WK), Dose: 0, 1, 4, 8 NMOL IN 100 µL ACETONE 2/WK FOR 40 WK (STUDY DURATION: 48 WK), Tumor Site: Type of Lesion: SKIN: TUMORS): active; positive
carcinogen call (Species: MOUSE, Strain/Sex: SWISS/FEMALE, Route: DERMAL, Dose: 20-500 UG IN ACETONE ONCE, Tumor Site: Type of Lesion: INTEGUMENTARY SYSTEM (SKIN): SQUAMOUS CELL CARCINOMA, SARCOMA, EPITHELIOMA): active; positive
carcinogen call (Species: MOUSE, Strain/Sex: SWISS/FEMALE, Route: DERMAL, Dose: 100, 200 UG IN 50 µL ACETONE ONCE, Tumor Site: Type of Lesion: INTEGUMENTARY SYSTEM (SKIN): PAPILLOMA, CARCINOMA, SARCOMA): active; positive
carcinogen call (Species: MOUSE, Strain/Sex: SWISS/MALE,FEMALE, Route: SUBCUTANEOUS, Dose: 0.9 MG SUSPENDED IN 0.45 ML 1% AQ GEL ONCE, Tumor Site: Type of Lesion: INJECTION SITE: FIBROSARCOMA, SQUAMOUS CELL CARCINOMA): active; positive
